Test results: patent publication US20040198841A1, “Use of thiol-based compositions in ameliorating mucosal injury” (Oregon Health & Science University, priority 2003, published 2004)

How the values were obtained:
LX-1 SCLC = test: Weight loss and survival in nude rats 12 days after intracerebral inoculation with LX-1 SCLC cells, with or without oral TMZ (Example 2); assay type: in vivo
Procedure: TMZ was given at a dosage of 5 mg orally, once daily, on days 6-11. There were 10 members in the untreated group and seven members in the group treated with TMZ.
For the intracerebral inoculations, the nude rats were anesthetized with a mixture of intraperitoneal ketamine (60 mg/kg) and diazepam (7.5 mg/kg). The head was shaved and scrubbed with Betadine, a midline incision made, and a 2 mm burr hole using stereotaxic coordinates was made. A 27 g needle was used for inoculation with a 100 ul Hamilton syringe, placed […] ventral to the surface, deep in the right caudate putamen. Inoculants used were LX-1 SCLC. The needle was withdrawn and the incision closed with wound clips. One group of rats received no treatment, while the other group received oral 5 mg doses of TMZ, an alkylating agent, once daily on days 6-11 after inoculation, delivered through a feeding tube while under isoflurane anesthesia. On day 12, all rats were weighed, sacrificed, and the brains removed and fixed in formalin for subsequent tumor-volume analysis.
It is believed that TMZ effects the size of any lesions in the brain. The TMZ may decrease the size of any lesions in the brain; those animals experiencing more constant or improved appetite than animals with larger tumors which experienced appetite suppression.

[1] = Brizel DM, J Clin Oncol 2000; cited from earlier work
[2] = system: Normal human gastric cells (NHGC); test: WST-1 colorometric assay, chemoprotection against BR96-dox toxicity (Example 4); assay type: cell-based; details: for chemoprotection against BR96-dox toxicity: first test: drug and chemoprotectant co-incubated for 2-3 days
Procedure: Normal human gastric cells (NHGC) express high levels of the LewisY antigen recognized by the BR96 monoclonal antibody. BR-96 and BR-96-Dox toxicity was examined in NHGC to determine if toxicity could be protected against with thiol chemoprotectants.
(§1) Cytotoxicity is determined as the proportion of live cells, in comparison to untreated controls, using the WST-1 colorometric assay available from Roche Diagnostics, Indianapolis, Ind.

[3] = Weight loss and diarrhea in Long Evans rats seven days after intra-arterial Cisplatin with or without i.v. NAC (Example 1); assay type: in vivo; details: Cisplatin 6 mg/kg intra-arterially
Procedure: The graph shown as FIG. 1 represents the weight loss in grams in Long Evans rats seven days after administration of Cisplatin and NAC. Six mg/kg of Cisplatin was given intra-arterially either with or without intravenous (i.v.) administration of NAC at a dosage of 400 mg/kg. The NAC was administered about 15 minutes prior to the Cisplatin administration. The group without NAC consisted of 11 members. The NAC-treated group consisted of 8 members.
In the method of Example 1 for Cisplatin, the Long Evans rats were weighed, induced with isoflurane inhalant (2%+1.5% O2), intubated, placed on a respirator, and prepped for surgery. Isoflurane was then replaced with propofol (800 ug/kg/min i.v.) and a 50% nitrous/50% oxygen mixture. A ventral midline incision was made from mandible to manubrium. The left carotid bifurcation was exposed and freed, and the left external carotid artery was cannulated. NAC was then given intravenously to the treated group and intravenous saline was given to the untreated group. After 15 minutes, the left internal carotid artery was clamped, and Cisplatin (6 mg/kg) was infused through the external carotid catheter. The cannula was removed, and the skin incisions were closed using 4-0 Vicryl in a simple continuous pattern.
Seven days after Cisplatin infusion, the rats were weighed. These body weights were compared to those taken before surgery. […] This is correlated with renal failure and/or mucositis in the untreated group.

GM294 human fibroblasts = test: WST colorometric cytotoxicity assay, chemoprotection with or without BSO cytoenhancement (Example 3); assay type: cell-based; details: NAC 1000 μg/ml added immediately after melphalan, cisplatin, carboplatin or etoposide phosphate; with or without 100 μM BSO pretreatment
Procedure: Cytotoxicity was assessed in GM294 human fibroblasts, 1×10^4 cells per well in 96 well plates, using the WST colorometric assay. Cells were pretreated with or without BSO, 100 μM for 18 hours prior to addition of chemotherapeutics (melphalan=10 μg/ml, carboplatin=100 μg/ml, cisplatin=7.5 μg/ml, etoposide phosphate 100 μg/ml) either alone (open bar), or with NAC rescue, (1000 μg/ml N-acetylcysteine, striped bar), BSO cytoenhancement (black bar), or BSO cytoenhancement and NAC rescue (cross hatched bar). Data are expressed as the percentage of live cells compared to control samples (without chemotherapy) and each point represents the mean±s.d. of 4 wells. This was also repeated with normal human gastric cells (NHGC) and gastric epithelial cells.
The fibroblast cells were either preincubated or not preincubated with 100 μM BSO for about 18-24 hours prior to addition of chemotherapy, and rescue consisted of 1000-2000 μg/ml of a thiol anti-mucosal injury agent added immediately after chemotherapy. […] Protection of epithelia cells allows for the prevention and treatment of mucositis of these tissues.

LX-1 cells = test: Chemoprotection in LX-1 cells (Example 4); assay type: cell-based; details: low dosages, about 0.2 to about 0.5 mg/ml
Procedure: as §1
Low dosages, about 0.2 to about 0.5 mg/ml, of NAC were protective against alkylators in LX-1 cells. NAC was 10-90% chemoprotective of NHGC at high dosages, such as from about 1-5 mg/ml.

[4] = Weight loss in Long Evans rats 7 days after cisplatin to the aorta, 15 minutes after i.v. saline or NAC (Example 5); assay type: in vivo; details: cisplatin 6 mg/kg via right external carotid artery cannula; NAC 400 mg/kg i.v. 15 minutes before; n=8 per group
Procedure: Before the study began, the rats were weighed to establish a baseline. Long Evans rats were treated with cisplatin 6 mg/kg delivered to the aorta via a right external carotid artery cannula 15 minutes after intravenous infusion of saline (n=8) or NAC 400 mg/kg (n=8). This procedure was preformed by the rats being induced with isoflurane inhalant (2%+1.5% oxygen), intubated, placed on a respirator and prepped for surgery. Isoflurane was then replaced with propofol (800 μg/kg/min i.v.) and a 50% nitrous/50% oxygen mixture. A ventral midline incision was made from mandible to manubrium. The right carotid bifurcation was exposed and freed, and the right external carotid artery was cannulated. NAC (400 mg/kg) was then given to the treated group (n=8) and i.v. saline was given to the untreated group (n=8). After 15 minutes, the right internal carotid artery was clamped and cisplatin (6 mg/kg) was rapidly infused through the external carotid catheter. The cannula was removed and the skin incisions were closed using 4-0 Vicryl in a simple continuous pattern. Health and well being were monitored daily post-surgery. After seven days, the animals were weighed and this value compared to the baseline.

[5] = NAC 400 mg/kg i.v. 15 minutes prior

For `Cn1nnc2c(C(N)=O)ncn2c1=O` [TMZ, Temazolamide], the “subjective activity at day 12 compared to untreated group” value (LX-1 SCLC; TMZ 5 mg orally once daily on days 6-11) was “more active and responsive”, the “survival to day 12” value (LX-1 SCLC; TMZ 5 mg orally once daily on days 6-11, three rats without TMZ did not survive to day 12) was “all of the TMZ rats survived to day 12” and the “loss of body weight at day 12, group without TMZ compared to group treated with TMZ” value (LX-1 SCLC; TMZ 5 mg orally once daily on days 6-11 after inoculation, unpaired t-test p<0.0041) was “significantly higher loss of body weight”.
In the case of `NCCCNCCSP(=O)(O)O` [Amifostine, amifostine], the “effect on mucositis in patients undergoing radiation therapy” value [1] is given as “not to reduce mucositis”.
In the case of `CCOC(=O)CNC(=O)[C@H](CS)NC(=O)CC[C@H](N)C(=O)O` [GSH ethyl ester, glutathione ethyl ester], the “chemoprotection against BR96-dox toxicity” value [2] is reported as “No chemoprotection”.
In the case of `CC(=O)N[C@@H](CS)C(=O)O` [NAC, N-acetylcysteine], the “diarrhea, group without NAC compared to NAC treated group” value [3, 5] is reported as “greater diarrhea than the NAC treated group”, the “subjective condition of untreated rats compared to NAC-treated group” value [3, 5] is reported as “more depressed, cachexic, and dehydrated than the NAC-treated group” and the “loss of body weight after 7 days, group without NAC compared to NAC-treated group” value ([3]; NAC 400 mg/kg i.v. about 15 minutes prior, unpaired t-test p<0.0002) is reported as “significantly larger loss of body weight”. The “chemoprotection of fibroblast cells (percentage of live cells)” value (GM294 human fibroblasts) was “protective effect”, the “chemoprotective of NHGC” value ([2]; first test: co-incubated for 2-3 days, high dosages, about 1-5 mg/ml) was 10-90% and the “chemoprotective, pulsed treatment” value ([2]; second test: 4 hour pulsed treatment with BR-96-dox and NAC) was 0-20%. For the same compound, the “protection against alkylators in LX-1 cells” value (LX-1 cells) was “protective” and the “weight loss after 7 days compared to control” value [4] was “less weight loss than the control”.
With `CSCC[C@@H](N)C(=O)O` [d-Methionine, D-methionine] the “chemoprotection against BR96-dox toxicity” value [2] was “No chemoprotection”.
For `O=S([O-])([O-])=S.[Na+].[Na+]` [STS, sodium thiosulfate], the “chemoprotection against BR96-dox toxicity” value [2] was “No chemoprotection”.
